Measured values taken from ChEMBL document CHEMBL1201862, “PubChem BioAssay data set” (2004).
pIC50: −log10 of the molar value. Activity calls are given as the source filed them.

Experiments:
[1] = inhibitors of HIV Env-driven cell fusion, dose response, cherry-pick (AID 652057); assay type: functional, cell-based
[2] = CEM21 lymphoblast cell cytotoxicity, dose response, cytotoxicity control for viral fusion inhibitor project, CellTiter-Glo luminescence, cherry-picked (AID 652042); assay type: functional, cell-based;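 also: potency for signal decrease meaning cytotoxicity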
[3] = ZM109 Env clade C HIV-1 fusion inhibitors, dose response, HeLa effector, CEM target cells, luciferase, cherry-pick (AID 652058); assay type: functional, cell-based
[4] = off-target signal loss in HeLa-CEM21 co-culture – HeLa F-luc CTL cells, cherry-picked, counter-screen for HIV-1 Env fusion inhibitor project, dose response (AID 652040); assay type: functional, cell-based;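 also: potency for signal decrease marking cytotoxic or nonspecific inhibition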
[5] = inhibitors of clade B AD8 Env fusion, dose response, cell-based, cherry-pick (AID 652062); assay type: functional;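 also: luciferase signal from cell-cell fusion driven by HIV-1 clade B AD8 Env; potency is for inhibitors of fusion seen as a drop in luminescence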
[6] = intracellular Trypanosoma cruzi inhibitors in host cells – cell-based, plate reader, cherry-pick samples, set 3, dose response (AID 651818); assay type: functional;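 also: compounds incubated with infected cells for about four days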
[7] = NIH/3T3 fibroblast cytotoxicity, dose response, cytotoxicity control for T. cruzi growth inhibitor project, cell-based, cherry-pick samples, set 2 (AID 651817); assay type: functional; conditions: NIH3T3
[8] = HEK293 cell viability, dose response, counter-screen for EBV LMP1 inhibitor project, dry powder, set 2 (AID 624374); assay type: functional
[9] = target: Metabotropic glutamate receptor 3 (Rattus norvegicus, UniProt P31422); assay: mGlu3 NAM potency via calcium readout, dose response, mGlu3 NAM project, TREx293 cells, Galpha15, calcium flux (AID 651840); assay type: functional
[10] = A Cell-Based Confirmatory Screen for Compounds that Inhibit VEEV, TC-83 (8).; assay type: functional
[11] = Late stage assay provider results from the probe development effort to identify inhibitors of the Plasmodium falciparum M17 Leucine Aminopeptidase (M17LAP): radiolabel-based cell-based dose response assay to identify compounds that inhibit P. falciparum growth in RBCs Set 2.; assay type: functional

Sequence of Metabotropic glutamate receptor 3 (P31422 whole entry): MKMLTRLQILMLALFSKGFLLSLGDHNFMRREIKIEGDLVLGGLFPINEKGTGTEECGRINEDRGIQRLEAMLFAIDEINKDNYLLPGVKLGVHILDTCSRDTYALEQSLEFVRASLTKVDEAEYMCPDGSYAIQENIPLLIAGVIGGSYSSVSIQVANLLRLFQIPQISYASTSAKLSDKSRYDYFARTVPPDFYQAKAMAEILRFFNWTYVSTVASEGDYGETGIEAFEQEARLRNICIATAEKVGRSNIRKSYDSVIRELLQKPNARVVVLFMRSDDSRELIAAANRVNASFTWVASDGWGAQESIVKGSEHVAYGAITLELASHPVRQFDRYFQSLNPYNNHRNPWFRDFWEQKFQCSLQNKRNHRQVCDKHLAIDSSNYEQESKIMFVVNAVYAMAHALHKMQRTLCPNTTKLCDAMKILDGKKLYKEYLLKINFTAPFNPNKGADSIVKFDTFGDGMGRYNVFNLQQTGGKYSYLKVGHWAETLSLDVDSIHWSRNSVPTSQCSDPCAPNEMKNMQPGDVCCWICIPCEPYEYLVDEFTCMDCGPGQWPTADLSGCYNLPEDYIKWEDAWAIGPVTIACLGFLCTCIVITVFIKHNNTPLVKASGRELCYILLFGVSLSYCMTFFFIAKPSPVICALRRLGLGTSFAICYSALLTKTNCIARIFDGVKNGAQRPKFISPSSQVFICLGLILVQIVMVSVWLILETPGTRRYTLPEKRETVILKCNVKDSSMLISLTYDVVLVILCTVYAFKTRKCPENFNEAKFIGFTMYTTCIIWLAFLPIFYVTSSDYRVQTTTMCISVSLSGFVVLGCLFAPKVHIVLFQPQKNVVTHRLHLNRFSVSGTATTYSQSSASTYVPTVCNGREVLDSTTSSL

## Cc1cc(C)nc(Nc2nc(C(N)CCc3ccccc3)cs2)n1 (stereo unspecified)
[1]
  AC50: 4.75 µM (active)
[2]
  AC50: 40.1 µM (active)
[3]
  AC50: 3.65 µM (active)
[4]
  AC50: 6.75 µM (active)
[5]
  AC50: 18.2 µM (active)

## C[C@@H]1CN([C@@H](C)CO)C(=O)c2cccc(NC(=O)c3ccncc3)c2O[C@H]1CN(C)Cc1ccc(Cl)c(Cl)c1
[6]
  AC50: 0.08 µM (active)
[7]
  AC50: 16.6 µM (active)

## CS(=O)(=O)Nc1ccc2c(c1)[C@@H]1C[C@H](CC(=O)NCC3CC3)O[C@H](CO)[C@@H]1O2
[8]
  AbsAC35: 85.99 µM

## COc1ccc(C#Cc2ccc(C(=O)N3CCC[C@@H](O)C3)cc2)cc1
[9]
  pIC50: 6.22

## O=c1nc(Nc2ccc(OCc3ccccc3)cc2)sc2ncc(F)cc12
[10]
  IC50: 1.42 µM (active)

## O=C(Cc1ccc2ccccc2c1)NO
[11]
  IC50: 5.8 µM (active)
